Experimental data: patent US10722437B2, “Cosmetic agents with “improved protection against body odor”” (Henkel AG & Co. KGaA, priority 2016, dated 2020)

System: body odor
Test: Neutralization of body odor: specimen on left armpit vs anti-transpirant base suspension on right armpit, worn T-shirt rated by trained persons
Type: in vivo, human
Conditions: statement in words on the body odor test; 0.3 wt. % in anti-transpirant base suspension
Description: The following anti-transpirant base suspension was used to determine the synergistic effect with respect to the neutralization of body odor (values in wt. %):
Each of the following cyclical alcohols of the Formula (I) and/or menthyl compounds of the Formula (II) were added to said composition, wherein the total concentration of alcohol and/or menthyl compound in the suspension is 0.3 wt. % (all values in wt. %, relative to the used anti-transpirant suspension):
Said suspensions, each with a weight ratio of 15:85, were then placed in aerosol cans with a propellant mixture of propane and n-butane (weight ratio 15:85). Specimens No. 1 to 11 were each applied to the left armpit, the anti-transpirant base suspension to the right armpit. 24 hours after application, the body odor on the worn T-shirt on the left armpit (treated with specimens No. 1 to 11) were compared to the body odor of the right armpit (treated with anti-transpirant base suspension) by trained persons. The following rating scale was used: 0=no difference between specimen No. 1 to 11 and anti-transpirant base suspension; +=body odor reduced compared to anti-transpirant base suspension; ++=body odor no longer discernible on the T-shirt.

SMILES | deodorizing effect
CC(O)C1CCCCC1 (stereo not drawn) [1-cyclohexylethanol] | deodorizing effect
CC(=O)O[C@@H]1C[C@H](C)CC[C@H]1C(C)C [menthylacetate] | deodorizing effect
CC(CO)CCCC1CCCCC1 (stereo not drawn) [2-methyl-5-cyclohexylpentanol] | a deodorizing effect is achieved
